Measured values reported in patent US9175013B2, “Fused aminodihydrothiazine derivatives” (Eisai R&D Management Co., Ltd., priority 2011, dated 2015).

Assays:
[1] = Plasma protein binding (PPB), rapid equilibrium dialysis; type: in vitro ADME; settings: male, Sprague Dawley, rat, 37° C., 6 h dialysis
Procedure: (§1) Method for Determination of Plasma Protein Binding (PPB) and Brain Tissue Binding (BTB) Compound Preparation • Compounds were dissolved in DMSO to give a 1 mg free base/mL solution, before further dilution to 100 μg/mL in acetonitrile (100 μL of 1 mg/mL into 900 μL acetonitrile). Matrix Preparation • On the morning of dialysis, control male Sprague Dawley rat plasma and brain, previously stored at −80° C. were thawed at room temperature. Plasma was checked for pH and if necessary adjusted to 7.4 with 1M HCl. Plasma was then centrifuged (2000 g for 10 min) and the brains diluted with 2 mL of Phosphate Buffered Saline (pH 7.4) per gram of tissue and homogenised using a mechanical homogeniser. An aliquot (10 μL) of the 100 μg/mL acetonitrile compound solution was then added to 1 mL of plasma and brain homogenate and vortex mixed to give a final compound concentration of 1 μg/mL in matrix. RED Plate Preparation • The Rapid Equilibrium Dialysis (RED) plate (Thermo Scientific) was prepared in accordance with the manufacturers guidelines i.e. the base plate was soaked in 20% (v/v) ethanol for 10 min and then rinsed twice with deionised water before being allowed to dry. The base plate was then filled with the appropriate number of disposable inserts (n=3 per compound) (Thermo Scientific) and matrix containing 1 μg/mL compound added into the matrix chamber of the inserts (200 μL) and an aliquot (350 μL) of PBS added to the buffer chamber. The plate was then covered with an adhesive and incubated in air at 37° C. for 6 h with 130 rpm agitation. Sampling • Following the 6 h incubation, the seal was removed and an aliquot (50 μL) taken from the PBS chambers and dispensed into Micronics tubes. Also, an aliquot (50 μL) was removed from the matrix chambers and placed into separate Micronics tubes. Plasma and brain was then matrix matched with 50 μL of drug-free PBS and the PBS samples with 50 μL of the corresponding drug-free matrix, to give equal final compositions and volumes […]. Sample Analysis • Samples were vortex mixed and an aliquot (300 μL) of acetonitrile containing 0.1% formic acid and 100 ng/mL of an appropriate internal standard added. Samples were then mixed and centrifuged (2000 g for 15 min) and an aliquot of the supernatant (100 μL) removed into a 96-deep well plate and diluted with an equal volume of water ready for analysis by LC-MS/MS. • The following data was obtained for the following compounds in the above assay (Table 5).

[2] = Brain tissue binding (BTB), rapid equilibrium dialysis; type: in vitro ADME, Sprague Dawley rat; settings: 1 μg/mL in rat brain homogenate, 37° C., 6 h dialysis, mean of n = 3; for fraction unbound at 6 h, 1 μg/mL: male, Sprague Dawley, pH 7.4, read-out: Rat Brain fu
Procedure: as §1

[3] = Human liver microsomal stability assay; type: in vitro ADME; settings: 0.1 μmol/L compound, 30 min, 37° C., NADPH generating system
Procedure: Human Liver Microsomal Stability Assay The compound was dissolved in DMSO to prepare 1 mmol/L DMSO solution. The DMSO solution was diluted with distilled water to prepare 1 μmol/L compound dosing solution (DMSO conc.: 0.1%). 105 μL of reaction buffer (1 mol/L phosphate buffer (pH 7.4)/1 mmol/L EDTA (pH 7.4)/distilled water=1/1/5, v/v/v), 15 μL of 1 μmol/L compound dosing solution, and 15 μL of rat or human liver microsomes (5 mg/mL) were mixed, and preincubated for 5 min at 37° C. Metabolic reaction was initiated by adding 15 μL of NADPH generating system (3.3 mmol/L β-NADPH+, 80 mmol/L glucose 6-phosphate, 1 unit/mL glucose 6-phosphate dehydrogenase, 60 mmol/L MgCl2). For the control sample, NADPH generating system was replaced with 60 mmol/L MgCl2. The 150 μL of reaction mixture (final compound conc.: 0.1 μmol/L, final DMSO conc.: 0.01%) was incubated for 30 min at 37° C., and the reaction was terminated by adding 150 μL of methanol/acetonitrile solution containing an appropriate internal standard compound. The sample was vortexed and centrifuged, and obtained supernatant was subject to LC/MS analysis.

[4] = pH 7.4, 1 μg/mL in rat plasma, mean of n = 3, read-out: Rat PPB (%) (converted)
[5] = pH 7.4, fraction unbound, 1 μg/mL in rat plasma, mean of n = 3, read-out: Rat Plasma fu

fraction unbound at 6 h, 1 μg/mL [1, 4] | fraction unbound at 6 h, 1 μg/mL [1, 5] | Rat BTB (%) [2] [%] | fraction unbound at 6 h, 1 μg/mL [2] | HLM stability: percentage of parent remaining upon 30 minute incubation with human liver microsomes [3] [%] | SMILES
0.143 | 0.143 | 96.5 | 0.035 | 73.3 | COc1cnc(C(=O)Nc2ccc(F)c([C@]34CO[C@H](C(F)F)[C@H]3CSC(N)=N4)c2)cn1 [Example 3, N-(3-((4aS,5S,7aS)-2-amino-5-(difluoromethyl)-4a,5,7,7a-tetrahydro-4H-furo[3,4-d][1,3]thiazin-7a-yl)-4-fluorophenyl)-5-methoxypyrazine-2-carboxamide]
0.13 | 0.13 | 97.9 | 0.021 | 78.6 | COc1cnc(C(=O)Nc2cc(F)c(F)c([C@]34CO[C@H](CF)[C@H]3CSC(N)=N4)c2)cn1 [Example 4, N-(3-((4aS,5S,7aS)-2-amino-5-(fluoromethyl)-4a,5,7,7a-tetrahydro-4H-furo[3,4-d][1,3]thiazin-7a-yl)-4,5-difluorophenyl)-5-methoxypyrazine-2-carboxamide]

SMILES | fraction unbound at 6 h, 1 μg/mL [1, 4] | fraction unbound at 6 h, 1 μg/mL [1, 5] | Rat BTB (%) [2] [%] | fraction unbound at 6 h, 1 μg/mL [2] | HLM stability: percentage of parent remaining upon 30 minute incubation with human liver microsomes [3] [%]
COc1cnc(C(=O)Nc2ccc(F)c([C@]34CO[C@H](CF)[C@H]3CSC(N)=N4)c2)cn1 [Example 2, N-(3-((4aS,5S,7aS)-2-amino-5-(fluoromethyl)-4a,5,7,7a-tetrahydro-4H-furo[3,4-d][1,3]thiazin-7a-yl)-4-fluorophenyl)-5-methoxypyrazine-2-carboxamide] | 0.251 | 0.252 | 93.4 | 0.066 | 82.0
